# Assay results as given in the supplement of paper PMC10307832.
# Experiments:
# Assay in all cases: relative viability (nuclei count vs DMSO), 5 days (fraction); higher = more cells survive
# NCI-H2228 = test system: NCI-H2228
# Summary of the method: (§1)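 Lung cancer cell lines in 1536-well plates got either a single drug or a fixed anchor-drug dose together with five library-drug doses (not always all listed) in √10 steps, by pin tool, on the day after seeding. Nuclei were counted after 5 days, and relative viability is the treated-to-vehicle ratio of nuclei counts. Values are medians of duplicate plates.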
# NCI-H650 = test system: NCI-H650
# Summary of the method: as §1
# NCI-H1734 = test system: NCI-H1734
# Summary of the method: as §1
# PC-3 [JPC-3] = test system: PC-3 [JPC-3]
# Summary of the method: as §1
# RERF-LC-KJ = test system: RERF-LC-KJ
# Summary of the method: as §1
# NCI-H1792 = test system: NCI-H1792
# Summary of the method: as §1
# EPLC-272H = test system: EPLC-272H
# Summary of the method: as §1
# 201T = test system: 201T
# Summary of the method: as §1
# LCLC-97TM1 = test system: LCLC-97TM1
# Summary of the method: as §1
# NCI-H661 = test system: NCI-H661
# Summary of the method: as §1
# NCI-H1915 = test system: NCI-H1915
# Summary of the method: as §1
# SK-MES-1 = test system: SK-MES-1
# Summary of the method: as §1
# NCI-H1355 = test system: NCI-H1355
# Summary of the method: as §1
# LCLC-103H = test system: LCLC-103H
# Summary of the method: as §1
# NCI-H1651 = test system: NCI-H1651
# Summary of the method: as §1
# NCI-H460 = test system: NCI-H460
# Summary of the method: as §1
# HCC-78 = test system: HCC-78
# Summary of the method: as §1
# SW 1573 = test system: SW 1573
# Summary of the method: as §1
# NCI-H596 = test system: NCI-H596
# Summary of the method: as §1
# LOU-NH91 = test system: LOU-NH91
# Summary of the method: as §1
# NCI-H1993 = test system: NCI-H1993
# Summary of the method: as §1
# NCI-H1793 = test system: NCI-H1793
# Summary of the method: as §1
smiles,measurement,setting,value
Oc1nc(-c2ccc(C(F)(F)F)cc2)nc2c1CSCC2 [XAV939] + Nc1nc2[nH]cc(CCc3ccc(C(=O)N[C@@H](CCC(=O)O)C(=O)O)cc3)c2c(=O)[nH]1 [Pemetrexed] (partner 0.2 µM),relative viability,NCI-H2228; first compound 0.08 µM,0.332
same,relative viability,NCI-H2228; first compound 0.253 µM,0.341
same,relative viability,NCI-H2228; first compound 0.8 µM,0.29
same,relative viability,NCI-H2228; first compound 2.53 µM,0.271
same,relative viability,NCI-H650; first compound 0.08 µM,0.973
same,relative viability,NCI-H650; first compound 0.253 µM,1
same,relative viability,NCI-H650; first compound 0.8 µM,0.96
same,relative viability,NCI-H650; first compound 2.53 µM,0.816
same,relative viability,NCI-H1734; first compound 0.08 µM,0.444
same,relative viability,NCI-H1734; first compound 0.253 µM,0.405
same,relative viability,NCI-H1734; first compound 0.8 µM,0.417
same,relative viability,NCI-H1734; first compound 2.53 µM,0.392
same,relative viability,PC-3 [JPC-3]; first compound 0.253 µM,1.04
same,relative viability,PC-3 [JPC-3]; first compound 0.8 µM,0.946
same,relative viability,PC-3 [JPC-3]; first compound 2.53 µM,1.11
same,relative viability,RERF-LC-KJ; first compound 0.08 µM,0.493
same,relative viability,RERF-LC-KJ; first compound 0.253 µM,0.464
same,relative viability,RERF-LC-KJ; first compound 0.8 µM,0.502
same,relative viability,RERF-LC-KJ; first compound 2.53 µM,0.453
same,relative viability,NCI-H1792; first compound 0.08 µM,0.967
same,relative viability,NCI-H1792; first compound 0.253 µM,0.726
same,relative viability,NCI-H1792; first compound 0.8 µM,0.813
same,relative viability,NCI-H1792; first compound 2.53 µM,0.72
same,relative viability,EPLC-272H; first compound 0.08 µM,0.312
same,relative viability,EPLC-272H; first compound 0.253 µM,0.238
same,relative viability,EPLC-272H; first compound 0.8 µM,0.511
same,relative viability,EPLC-272H; first compound 2.53 µM,0.308
same,relative viability,201T; first compound 0.08 µM,0.359
same,relative viability,201T; first compound 0.253 µM,0.338
same,relative viability,201T; first compound 0.8 µM,0.374
same,relative viability,201T; first compound 2.53 µM,0.288
same,relative viability,LCLC-97TM1; first compound 0.08 µM,0.234
same,relative viability,LCLC-97TM1; first compound 0.253 µM,0.179
same,relative viability,LCLC-97TM1; first compound 2.53 µM,0.162
same,relative viability,NCI-H661; first compound 0.08 µM,0.947
same,relative viability,NCI-H661; first compound 0.253 µM,0.868
same,relative viability,NCI-H661; first compound 0.8 µM,0.914
same,relative viability,NCI-H661; first compound 2.53 µM,0.854
same,relative viability,NCI-H1915; first compound 0.08 µM,0.454
same,relative viability,NCI-H1915; first compound 0.253 µM,0.466
same,relative viability,NCI-H1915; first compound 0.8 µM,0.531
same,relative viability,NCI-H1915; first compound 2.53 µM,0.486
same,relative viability,SK-MES-1; first compound 0.08 µM,1.01
same,relative viability,SK-MES-1; first compound 0.253 µM,0.778
same,relative viability,SK-MES-1; first compound 0.8 µM,0.835
same,relative viability,SK-MES-1; first compound 2.53 µM,0.768
same,relative viability,NCI-H1355; first compound 0.08 µM,1.02
same,relative viability,NCI-H1355; first compound 0.253 µM,0.944
same,relative viability,NCI-H1355; first compound 0.8 µM,0.962
same,relative viability,NCI-H1355; first compound 2.53 µM,0.852
same,relative viability,LCLC-103H; first compound 0.08 µM,0.448
same,relative viability,LCLC-103H; first compound 0.253 µM,0.405
same,relative viability,LCLC-103H; first compound 0.8 µM,0.519
same,relative viability,LCLC-103H; first compound 2.53 µM,0.472
same,relative viability,NCI-H1651; first compound 0.08 µM,0.576
same,relative viability,NCI-H1651; first compound 0.253 µM,0.513
same,relative viability,NCI-H1651; first compound 0.8 µM,0.545
same,relative viability,NCI-H1651; first compound 2.53 µM,0.4
same,relative viability,NCI-H460; first compound 0.08 µM,0.0608
same,relative viability,NCI-H460; first compound 0.253 µM,0.0511
same,relative viability,NCI-H460; first compound 0.8 µM,0.07
same,relative viability,NCI-H460; first compound 2.53 µM,0.0697
same,relative viability,HCC-78; first compound 0.08 µM,0.881
same,relative viability,HCC-78; first compound 0.253 µM,0.829
same,relative viability,HCC-78; first compound 0.8 µM,0.846
same,relative viability,HCC-78; first compound 2.53 µM,0.942
same,relative viability,SW 1573; first compound 0.08 µM,0.876
same,relative viability,SW 1573; first compound 0.253 µM,0.659
same,relative viability,SW 1573; first compound 0.8 µM,0.816
same,relative viability,SW 1573; first compound 2.53 µM,0.731
same,relative viability,NCI-H596; first compound 0.08 µM,0.544
same,relative viability,NCI-H596; first compound 0.253 µM,0.488
same,relative viability,NCI-H596; first compound 0.8 µM,0.588
same,relative viability,NCI-H596; first compound 2.53 µM,0.435
same,relative viability,LOU-NH91; first compound 0.08 µM,0.461
same,relative viability,LOU-NH91; first compound 0.253 µM,0.359
same,relative viability,LOU-NH91; first compound 0.8 µM,0.391
same,relative viability,LOU-NH91; first compound 2.53 µM,0.349
same,relative viability,NCI-H1993; first compound 0.08 µM,0.575
same,relative viability,NCI-H1993; first compound 0.253 µM,0.471
same,relative viability,NCI-H1993; first compound 0.8 µM,0.536
same,relative viability,NCI-H1993; first compound 2.53 µM,0.541
same,relative viability,NCI-H1793; first compound 0.08 µM,1.08
same,relative viability,NCI-H1793; first compound 0.253 µM,0.797
same,relative viability,NCI-H1793; first compound 0.8 µM,0.936
same,relative viability,NCI-H1793; first compound 2.53 µM,0.678
